{"source": "PubChem BioAssay (NCI)", "assay_in_all_cases": "NCI anticancer screen, dose series, 384-well format", "key": {"CCRF-CEM leukemia": {"tested_on": "CCRF-CEM leukemia"}, "DU-145 prostate": {"tested_on": "DU-145 prostate"}, "K-562 leukemia": {"tested_on": "K-562 leukemia"}, "M14 melanoma": {"tested_on": "M14 melanoma"}, "MALME-3M melanoma": {"tested_on": "MALME-3M melanoma"}, "MDA-MB-435 melanoma": {"tested_on": "MDA-MB-435 melanoma"}, "MDA-MB-468 breast": {"tested_on": "MDA-MB-468 breast"}, "NCI-H226 lung": {"tested_on": "NCI-H226 lung"}, "NCI/ADR-RES ovarian": {"tested_on": "NCI/ADR-RES ovarian"}, "OVCAR-8 ovarian": {"tested_on": "OVCAR-8 ovarian"}, "SK-MEL-2 melanoma": {"tested_on": "SK-MEL-2 melanoma"}, "U251 glioblastoma": {"tested_on": "U251 glioblastoma"}, "UACC-257 melanoma": {"tested_on": "UACC-257 melanoma"}}, "note": "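GI50 marks 50% less growth. The concentration for full growth arrest is given as TGI.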", "data": [{"smiles": "C[C@@H](c1ccc2nccn2c1)n1nnc2ncc(-c3cnn(C)c3)nc21", "values": [{"measurement": "GI50", "setting": "CCRF-CEM leukemia", "value": "> 71.6", "unit": "µM"}, {"measurement": "TGI", "setting": "CCRF-CEM leukemia", "value": "> 100", "unit": "µM"}, {"measurement": "GI50", "setting": "DU-145 prostate", "value": "> 100", "unit": "µM"}, {"measurement": "TGI", "setting": "DU-145 prostate", "value": "> 100", "unit": "µM"}, {"measurement": "GI50", "setting": "K-562 leukemia", "value": 44.8, "unit": "µM"}, {"measurement": "TGI", "setting": "K-562 leukemia", "value": "> 100", "unit": "µM"}, {"measurement": "GI50", "setting": "M14 melanoma", "value": "> 100", "unit": "µM"}, {"measurement": "TGI", "setting": "M14 melanoma", "value": "> 100", "unit": "µM"}, {"measurement": "GI50", "setting": "MALME-3M melanoma", "value": "> 100", "unit": "µM"}, {"measurement": "TGI", "setting": "MALME-3M melanoma", "value": "> 100", "unit": "µM"}, {"measurement": "GI50", "setting": "MDA-MB-435 melanoma", "value": "> 100", "unit": "µM"}, {"measurement": "TGI", "setting": "MDA-MB-435 melanoma", "value": "> 100", "unit": "µM"}, {"measurement": "GI50", "setting": "MDA-MB-468 breast", "value": 22, "unit": "µM"}, {"measurement": "TGI", "setting": "MDA-MB-468 breast", "value": "> 100", "unit": "µM"}, {"measurement": "GI50", "setting": "NCI-H226 lung", "value": "> 100", "unit": "µM"}, {"measurement": "TGI", "setting": "NCI-H226 lung", "value": "> 100", "unit": "µM"}, {"measurement": "GI50", "setting": "NCI/ADR-RES ovarian", "value": "> 100", "unit": "µM"}, {"measurement": "TGI", "setting": "NCI/ADR-RES ovarian", "value": "> 100", "unit": "µM"}, {"measurement": "GI50", "setting": "OVCAR-8 ovarian", "value": "> 100", "unit": "µM"}, {"measurement": "TGI", "setting": "OVCAR-8 ovarian", "value": "> 100", "unit": "µM"}, {"measurement": "GI50", "setting": "SK-MEL-2 melanoma", "value": "> 100", "unit": "µM"}, {"measurement": "TGI", "setting": "SK-MEL-2 melanoma", "value": "> 100", "unit": "µM"}, {"measurement": "GI50", "setting": "U251 glioblastoma", "value": "> 100", "unit": "µM"}, {"measurement": "TGI", "setting": "U251 glioblastoma", "value": "> 100", "unit": "µM"}, {"measurement": "GI50", "setting": "UACC-257 melanoma", "value": "> 100", "unit": "µM"}, {"measurement": "TGI", "setting": "UACC-257 melanoma", "value": "> 100", "unit": "µM"}]}]}
